Experimental data from patent US20220226341A1, “Pharmaceutical Composition for Alzheimer's Disease” (Kyoto University, priority 2019, published 2022).

Assays:
[1] = Tissue distribution of radioactivity after single intravenous administration of 14C-labeled Compound 1 (blood-brain barrier penetration); format: in vivo; conditions: rats, single iv 5 mg/kg 14C-labeled; for Radioactivity concentration: n = 3
Procedure: [Testing the Penetration of the Compound Through the Blood-Brain Barrier]
Brain permeability (intracerebral transferability) of Compound 1 was evaluated.
^14C-labeled Compound 1 was intravenously administered once in a dose of 5 mg/kg (3.52 MBq/kg) to rats, and histological distribution (biodistribution) thereof was studied.

[2] = test system: Human Herpesvirus Type 6A (HHV-6A); test: Antiviral test against HHV-6A in Sup-T1 cells, TaqMan PCR; format: cell-based
Procedure: [Antiviral Test Against HHV-6A]
An antiviral test against HHV-6A using Compound 1 was performed by the following procedure.
Virus strain: Human Herpesvirus Type 6A (HHV-6A)
Medium: RPMI-1640+10% FBS+1% penicillin/streptomycin
Detection method: TaqMan PCR
Sup-T1 cells were cultured at a concentration of 1×10^6/ml, Compound 1, 3 μM, was added, and one hour after, HHV-6A virus (1×10^4 infectious units) were sensitized (or unsensitized cells were prepared as a negative control).
After culturing at 37° C. for two hours, the medium was replaced, and Compound 1 was added again. Three days after, 500 μl of the medium was sampled, and HHV-6A virus was quantified by TaqMan PCR. Statistical analysis was performed by Student's t-test.

CDK9/CycT1 = CDK9/CycT1 (Homo sapiens, UniProt P50750); test: CDK9 inhibitory activity, Off-chip Mobility Shift Assay (MSA); format: biochemical; conditions: room temperature, one hour, read-out: IC50 value with respect to CDK9/CycT1
Sequence of CDK9/CycT1 (P50750 whole entry): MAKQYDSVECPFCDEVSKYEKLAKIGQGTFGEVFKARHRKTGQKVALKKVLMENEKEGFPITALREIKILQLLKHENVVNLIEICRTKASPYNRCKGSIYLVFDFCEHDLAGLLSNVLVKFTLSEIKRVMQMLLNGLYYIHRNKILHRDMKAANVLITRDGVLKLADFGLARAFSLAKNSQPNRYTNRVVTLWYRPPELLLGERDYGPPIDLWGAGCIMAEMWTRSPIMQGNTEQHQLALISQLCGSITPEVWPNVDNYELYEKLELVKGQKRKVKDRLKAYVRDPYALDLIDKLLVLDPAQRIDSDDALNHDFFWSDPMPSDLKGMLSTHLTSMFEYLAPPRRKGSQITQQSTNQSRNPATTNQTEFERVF
Sequence of CDK9/CycT1 (O60563 whole entry partner): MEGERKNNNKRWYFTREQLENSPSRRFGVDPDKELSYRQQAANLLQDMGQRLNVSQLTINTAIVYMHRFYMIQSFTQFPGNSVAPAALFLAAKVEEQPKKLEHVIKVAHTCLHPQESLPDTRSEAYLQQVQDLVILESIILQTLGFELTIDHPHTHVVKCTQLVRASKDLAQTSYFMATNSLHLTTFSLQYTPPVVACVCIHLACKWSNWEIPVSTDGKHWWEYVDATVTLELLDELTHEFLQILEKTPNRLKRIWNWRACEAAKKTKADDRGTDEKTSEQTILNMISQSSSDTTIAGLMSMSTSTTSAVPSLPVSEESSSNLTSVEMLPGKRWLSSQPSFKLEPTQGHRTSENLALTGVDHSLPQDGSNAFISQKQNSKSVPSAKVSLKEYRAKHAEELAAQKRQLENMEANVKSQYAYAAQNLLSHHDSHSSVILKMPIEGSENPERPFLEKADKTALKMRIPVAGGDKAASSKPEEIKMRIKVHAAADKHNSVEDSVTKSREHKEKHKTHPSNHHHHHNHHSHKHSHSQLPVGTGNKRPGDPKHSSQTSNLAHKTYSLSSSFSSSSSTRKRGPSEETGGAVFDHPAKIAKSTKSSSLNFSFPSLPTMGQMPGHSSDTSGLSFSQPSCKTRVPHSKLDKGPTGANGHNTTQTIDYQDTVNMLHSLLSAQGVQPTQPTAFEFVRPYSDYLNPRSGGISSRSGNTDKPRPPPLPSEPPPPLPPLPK
Procedure: [Assay of CDK9 Inhibitory Activity]
The tests for confirming CDK9 inhibitory activity were carried out by the following procedure according to Off-chip Mobility Shift Assay (MSA).
A substrate/ATP/metal solution (4×) was prepared with use of a kit buffer (20 mM HEPES, 0.01% Triton X-100, 5 mM DTT, pH7.5). A kinase solution (2×) was prepared with use of an assay buffer.
2) The test substance solutions, the substrate/ATP/metal solution, and the kinase solution were mixed in wells of a polypropylene plate, and were caused to react at room temperature for one hour.
3) A termination buffer (QuickScout Screening Assist MSA; Cama Biosciences Inc.)
was added thereto to stop the reaction.
4) Substrate peptides and phosphorylated peptides in the reaction solutions were separated and quantified in LabChip™ System (PerkinElmer Co., Ltd.).
5) Kinase reaction activities were evaluated based on a product ratio (P/(P+S)) calculated from a peak height of the substrate peptide (S) and a peak height of the phosphorylated peptide (P).

SMILES: Fc1ccc(N2CCCCC2)c(NC(=S)c2ccncc2)c1 [Compound 1]
- Radioactivity concentration ([1]; Mandibular gland, 5 min): 13355.34 ng eq. of Compound 1/g or mL
- Radioactivity concentration ([1]; Mandibular gland, 6 h): 995.48 ng eq. of Compound 1/g or mL
- Radioactivity concentration ([1]; Mandibular gland, 24 h): 115.51 ng eq. of Compound 1/g or mL
- Radioactivity concentration ([1]; Mandibular gland, 72 h): 8.87 ng eq. of Compound 1/g or mL
- Radioactivity concentration ([1]; Mandibular lymph node, 5 min): 5693.66 ng eq. of Compound 1/g or mL
- Radioactivity concentration ([1]; Mandibular lymph node, 6 h): 1018.12 ng eq. of Compound 1/g or mL
- Radioactivity concentration ([1]; Mandibular lymph node, 24 h): 108.82 ng eq. of Compound 1/g or mL
- Radioactivity concentration ([1]; Mandibular lymph node, 72 h): 8.13 ng eq. of Compound 1/g or mL
- Radioactivity concentration ([1]; Pancreas, 5 min): 14356.66 ng eq. of Compound 1/g or mL
- Radioactivity concentration ([1]; Pancreas, 6 h): 1206.84 ng eq. of Compound 1/g or mL
- Radioactivity concentration ([1]; Pancreas, 24 h): 105.62 ng eq. of Compound 1/g or mL
- Radioactivity concentration ([1]; Pancreas, 72 h): 7.37 ng eq. of Compound 1/g or mL
- Radioactivity concentration ([1]; Prostate gland, 5 min): 5072.42 ng eq. of Compound 1/g or mL
- Radioactivity concentration ([1]; Prostate gland, 6 h): 1268.5 ng eq. of Compound 1/g or mL
- Radioactivity concentration ([1]; Prostate gland, 24 h): 114.45 ng eq. of Compound 1/g or mL
- Radioactivity concentration ([1]; Prostate gland, 72 h): 7.62 ng eq. of Compound 1/g or mL
- Radioactivity concentration ([1]; Skeletal muscle, 5 min): 2479.87 ng eq. of Compound 1/g or mL
- Radioactivity concentration ([1]; Skeletal muscle, 6 h): 838.23 ng eq. of Compound 1/g or mL
- Radioactivity concentration ([1]; Skeletal muscle, 24 h): 97.94 ng eq. of Compound 1/g or mL
- Radioactivity concentration ([1]; Skeletal muscle, 72 h): 10.11 ng eq. of Compound 1/g or mL
- Radioactivity concentration ([1]; Skin, 5 min): 3889.26 ng eq. of Compound 1/g or mL
- Radioactivity concentration ([1]; Skin, 6 h): 2084.85 ng eq. of Compound 1/g or mL
- Radioactivity concentration ([1]; Skin, 24 h): 150.1 ng eq. of Compound 1/g or mL
- Radioactivity concentration ([1]; Skin, 72 h): 23.26 ng eq. of Compound 1/g or mL
- Radioactivity concentration ([1]; Skin, 168 h): 6.57 ng eq. of Compound 1/g or mL
- Radioactivity concentration ([1]; Small intestine, 5 min): 6555.86 ng eq. of Compound 1/g or mL
- Radioactivity concentration ([1]; Small intestine, 6 h): 1979.83 ng eq. of Compound 1/g or mL
- Radioactivity concentration ([1]; Small intestine, 24 h): 156.71 ng eq. of Compound 1/g or mL
- Radioactivity concentration ([1]; Small intestine, 72 h): 9.85 ng eq. of Compound 1/g or mL
- Radioactivity concentration ([1]; Spleen, 5 min): 6622.6 ng eq. of Compound 1/g or mL
- Radioactivity concentration ([1]; Spleen, 6 h): 944.65 ng eq. of Compound 1/g or mL
- Radioactivity concentration ([1]; Spleen, 24 h): 113.01 ng eq. of Compound 1/g or mL
- Radioactivity concentration ([1]; Spleen, 72 h): 9.68 ng eq. of Compound 1/g or mL
- Radioactivity concentration ([1]; Stomach, 5 min): 8261.97 ng eq. of Compound 1/g or mL
- Radioactivity concentration ([1]; Stomach, 6 h): 2309.97 ng eq. of Compound 1/g or mL
- Radioactivity concentration ([1]; Stomach, 24 h): 227.12 ng eq. of Compound 1/g or mL
- Radioactivity concentration ([1]; Testis, 5 min): 2762.22 ng eq. of Compound 1/g or mL
- Radioactivity concentration ([1]; Testis, 6 h): 1217.12 ng eq. of Compound 1/g or mL
- Radioactivity concentration ([1]; Testis, 24 h): 128.05 ng eq. of Compound 1/g or mL
- Radioactivity concentration ([1]; Testis, 72 h): 8.72 ng eq. of Compound 1/g or mL
- Radioactivity concentration ([1]; Thymus, 5 min): 5034.15 ng eq. of Compound 1/g or mL
- Radioactivity concentration ([1]; Thymus, 6 h): 954.13 ng eq. of Compound 1/g or mL
- Radioactivity concentration ([1]; Thymus, 24 h): 97.42 ng eq. of Compound 1/g or mL
- Radioactivity concentration ([1]; Thymus, 72 h): 5.22 ng eq. of Compound 1/g or mL
- Radioactivity concentration ([1]; Thyroid gland, 5 min): 9550.71 ng eq. of Compound 1/g or mL
- Radioactivity concentration ([1]; Thyroid gland, 6 h): 2369.71 ng eq. of Compound 1/g or mL
- Radioactivity concentration ([1]; Thyroid gland, 24 h): 793.99 ng eq. of Compound 1/g or mL
- Radioactivity concentration ([1]; Thyroid gland, 72 h): 298.2 ng eq. of Compound 1/g or mL
- Radioactivity concentration ([1]; Thyroid gland, 168 h): 125.76 ng eq. of Compound 1/g or mL
- Brain permeability (intracerebral transferability) ([1]; cerebellum, cerebrum, pituitary gland higher than plasma at 5 minutes): capable of penetrating the brain
- Effect of suppressing growth of HHV-6A ([2]; 3 μM, in words): effect of suppressing growth of HHV-6A in the Compound 1-treated group was confirmed
- HHV-6A copy number ([2]; Compound 1 3 μM, medium sampled three days after, TaqMan PCR): 6767.59
- IC50 (CDK9/CycT1): 5.8 µM
